Reference: paper PMC9514063 (Protein Science : A Publication of the Protein Society, 2022)

Biological target: proBFT-3 (Bacteroides fragilis, UniProt O86049)
Assay: isothermal titration calorimetry
Assay type: binding

Sequence of proBFT-3 (O86049 18-397 limits assumed): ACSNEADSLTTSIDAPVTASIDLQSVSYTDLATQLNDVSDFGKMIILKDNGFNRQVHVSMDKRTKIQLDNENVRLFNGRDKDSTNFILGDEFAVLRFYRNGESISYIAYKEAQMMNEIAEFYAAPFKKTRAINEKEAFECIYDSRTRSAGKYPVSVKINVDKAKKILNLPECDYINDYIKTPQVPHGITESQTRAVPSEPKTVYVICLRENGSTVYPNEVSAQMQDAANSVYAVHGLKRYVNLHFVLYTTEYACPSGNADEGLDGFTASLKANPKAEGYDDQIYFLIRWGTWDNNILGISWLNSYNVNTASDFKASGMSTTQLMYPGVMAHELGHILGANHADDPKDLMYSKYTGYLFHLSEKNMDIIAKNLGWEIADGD

C[C@@H]1CCc2cc(F)cc3c(=O)c(C(=O)O)cn1c23 [C-4, flumequine]
Kd: 20 µM

COc1ccc([C@@H]2CC(=O)c3c(O)cc(O)cc3O2)cc1O [C-10, hesperetin]
Kd: 22 µM
